# Assays:
# Format in all cases: in vivo, male Wistar rats
# [1] = tested on: NeuN positive cells in DG, CA1, CA3 and cortex; experiment: NeuN IHC, neuronal cell loss 35 days post-TBI; settings: 4.5 mg/kg IN twice daily; 35 days following TBI
# Excerpt: (§1) Young adult (2-3 months) male Wistar rats were subjected to a moderate traumatic brain injury (TBI) induced by controlled cortical impact (CCI). Animal models of TBI including the CCI model and functional tests have been described in detail in peer reviewed publications (Xiong et al., 2013, Nat Rev Neurosci.; Zhang et al., 2016, J Neurosurg.; Zhang et al., 2016, Neurochem Int.; Zhang et al., 2021, J Neurotrauma). Injury consisted of a single impact at 4.0 m/sec, 2.5 mm deformation to the left parietal cortex. In addition, a group of animals was left healthy/not injured to serve as a healthy control.
# (§2) The substance used in this study was ALPHA-1062 at 4.5 mg/kg. As control treatment (vehicle) purified water was administered intranasally (IN). […]
# (§3) Histological assessment was performed including quantitative image analysis protocols; followed by statistical analysis of the data. […]
# (§4) For cell counting and quantitation NeuN+ cells were examined in the ipsilateral cortex, DG, CA1, and CA3 regions of the ipsilateral hippocampus. […] The number of BrdU+ cells (red-fluorophore) and NeuN (green-fluorophore)/BrdU-colabeled cells (yellow after merge) were counted. […] The immune-positive cells were determined and divided by the measured areas and presented as numbers per square mm. […]
# total Tau = experiment: Total Tau immunostaining 35 days post-TBI; settings: 4.5 mg/kg IN twice daily, cortex, DG, CA3, CA1 of ipsilateral hemisphere
# Excerpt: as §1
# The substance used in this study was ALPHA-1062 at 4.5 mg/kg. […]
# as §3
# For cell counting and quantitation NeuN+ cells were examined in the ipsilateral cortex, DG, CA1, and CA3 regions of the ipsilateral hippocampus. […] The number of BrdU+ cells (red-fluorophore) and NeuN (green-fluorophore)/BrdU-colabeled cells (yellow after merge) were counted. […] The immune-positive cells were determined and divided by the measured areas and presented as numbers per square mm. […] Tau or p-Tau immunoreactive areas including cortex, dentate gyrus, CA3 and CA1 regions of the ipsilateral hemisphere were imaged and quantified by Image J software (NIH).
# [2] = tested on: DCX+ neuroblasts in the dentate gyrus of the hippocampus; experiment: Doublecortin (DCX) IHC, neuroblasts in the dentate gyrus 35 days post-TBI; settings: 4.5 mg/kg IN twice daily; 35 days following TBI
# Excerpt: as §1, §2, §3, §4
structure (smiles),measurement,setting,value
"COc1ccc2c3c1O[C@H]1C[C@@H](OC(=O)c4ccccc4)C=C[C@@]31CCN(C)C2 [ALPHA-1062, (4aS,6R,8aS)-5,6,9,10,11,12-hexahydro-3-methoxy-11-methyl-4aH-[1]benzofuro[3a,3,2-ef][2]benzazepin-6-ol benzoate]","neuron numbers (NeuN) in DG, CA1, CA3 and cortex, compared to vehicle",[1],reduced loss of neurons
same,neuronal cell numbers (NeuN) compared to sham surgery animals,[1],did not differ significantly
same,total Tau protein,total Tau,does not alter total Tau protein
same,DCX positive cells in dentate gyrus compared to sham surgery cohort,[2],comparable numbers
same,DCX positive cells in dentate gyrus compared to vehicle,[2],higher number of DCX positive cells

# Source: patent US12589099B2 (priority 2021, dated 2026)
